Measurements taken from paper PMC5218480 (PLoS ONE, 2017).

Tested on: MV-4-11 cells
Experiment: Gene expression microarray analysis (Affymetrix PrimeView) and GSEA
Assay type: cell-based, human
Design: RFU PODN (11730768_x_at) / Fold change /veh PODN (11730768_x_at) / RFU LINC00158 (11744669_a_at) / Fold change /veh LINC00158 (11744669_a_at) / RFU DUSP10 (11751237_a_at) / Fold change /veh DUSP10 (11751237_a_at) / RFU ID3 (11757404_x_at) / Fold change /veh ID3 (11757404_x_at) / RFU PLEKHG5 (11737974_s_at) / Fold change /veh PLEKHG5 (11737974_s_at) / RFU LRRC4B (11730491_at) / Fold change /veh LRRC4B (11730491_at) / RFU GIMAP4 (11747438_a_at) / Fold change /veh GIMAP4 (11747438_a_at) / RFU KRT8 (11758183_x_at) / Fold change /veh KRT8 (11758183_x_at) / RFU CNN1 (11734310_a_at) / Fold change /veh CNN1 (11734310_a_at) / RFU VPS37D (11726825_at) / Fold change /veh VPS37D (11726825_at) / RFU C10orf10 (11716522_x_at) / Fold change /veh C10orf10 (11716522_x_at) / RFU KIR2DL2 /// KIR2DL4 /// KIR2DL5A /// KIR2DL5B /// KIR2DS1 /// KIR2DS2 /// KIR2DS3 /// KIR2DS4 /// KIR3DL3 /// KIR3DL3 /// KIR3DS1 (11738374_at) / Fold change /veh KIR2DL2 /// KIR2DL4 /// KIR2DL5A /// KIR2DL5B /// KIR2DS1 /// KIR2DS2 /// KIR2DS3 /// KIR2DS4 /// KIR3DL3 /// KIR3DL3 /// KIR3DS1 (11738374_at) / RFU C1QL1 (11718748_at) / Fold change /veh C1QL1 (11718748_at) / RFU TMPRSS4 (11747572_a_at) / Fold change /veh TMPRSS4 (11747572_a_at) / RFU HAMP (11756126_x_at) / Fold change /veh HAMP (11756126_x_at) / RFU RNFT2 (11725882_a_at) / Fold change /veh RNFT2 (11725882_a_at) / RFU NR4A2 (11747474_a_at) / Fold change /veh NR4A2 (11747474_a_at) / RFU ABCC12 (11746883_a_at) / Fold change /veh ABCC12 (11746883_a_at) / RFU TMEM136 (11760407_x_at) / Fold change /veh TMEM136 (11760407_x_at) / RFU CLDN22 /// WWC2 (11732394_at) / Fold change /veh CLDN22 /// WWC2 (11732394_at) / RFU HLA-DPB1 (11760878_x_at) / Fold change /veh HLA-DPB1 (11760878_x_at) / RFU SPINT1 (11716480_a_at) / Fold change /veh SPINT1 (11716480_a_at) / RFU GAP43 (11754022_s_at) / Fold change /veh GAP43 (11754022_s_at) / RFU A4GNT (11735810_at) / Fold change /veh A4GNT (11735810_at) / RFU PRB3 (11715151_x_at) / Fold change /veh PRB3 (11715151_x_at) / RFU TUBB4B (11761932_at) / Fold change /veh TUBB4B (11761932_at) / RFU CAPN14 (11732068_a_at) / Fold change /veh CAPN14 (11732068_a_at) / RFU TMCC2 (11721928_a_at) / Fold change /veh TMCC2 (11721928_a_at) / RFU IRGQ (11745062_a_at) / Fold change /veh IRGQ (11745062_a_at) / RFU FAM174B (11720279_a_at) / Fold change /veh FAM174B (11720279_a_at) / RFU TMPRSS4 (11748680_a_at) / Fold change /veh TMPRSS4 (11748680_a_at) / RFU FAM212B (11763350_a_at) / Fold change /veh FAM212B (11763350_a_at) / RFU PLEKHG5 (11743358_a_at) / Fold change /veh PLEKHG5 (11743358_a_at) / RFU ZSCAN30 (11745921_a_at) / Fold change /veh ZSCAN30 (11745921_a_at) / RFU CMKLR1 (11741424_a_at) / Fold change /veh CMKLR1 (11741424_a_at) / RFU LOC101060620 /// MAPK8IP1 (11723275_at) / Fold change /veh LOC101060620 /// MAPK8IP1 (11723275_at) / RFU SPTSSB (11747773_x_at) / Fold change /veh SPTSSB (11747773_x_at) / RFU PRSS12 (11739890_at) / Fold change /veh PRSS12 (11739890_at) / RFU BIN1 (11741810_x_at) / Fold change /veh BIN1 (11741810_x_at) / RFU WNT11 (11732464_a_at) / Fold change /veh WNT11 (11732464_a_at) / RFU C10orf10 (11716521_a_at) / Fold change /veh C10orf10 (11716521_a_at) / RFU C5orf56 (11738089_at) / Fold change /veh C5orf56 (11738089_at) / RFU CYB561 (11721691_x_at) / Fold change /veh CYB561 (11721691_x_at) / RFU ANKRD19P (11752326_a_at) / Fold change /veh ANKRD19P (11752326_a_at) / RFU OR2T12 /// OR2T33 /// OR2T8 (11738714_s_at) / Fold change /veh OR2T12 /// OR2T33 /// OR2T8 (11738714_s_at) / RFU VCAN (11748164_a_at) / Fold change /veh VCAN (11748164_a_at) / RFU JSRP1 (11732532_at) / Fold change /veh JSRP1 (11732532_at) / RFU KRTAP10-11 (11738290_x_at) / Fold change /veh KRTAP10-11 (11738290_x_at) / RFU MYO3A (11730013_a_at) / Fold change /veh MYO3A (11730013_a_at) / RFU EBF3 (11725865_a_at) / Fold change /veh EBF3 (11725865_a_at) / RFU CAMK2N1 (11719241_x_at) / Fold change /veh CAMK2N1 (11719241_x_at) / RFU C5orf56 (11738088_a_at) / Fold change /veh C5orf56 (11738088_a_at) / RFU OLFML3 (11715873_a_at) / Fold change /veh OLFML3 (11715873_a_at) / RFU LOC100653217 /// NTM (11731650_a_at) / Fold change /veh LOC100653217 /// NTM (11731650_a_at) / RFU MAPK11 (11762145_a_at) / Fold change /veh MAPK11 (11762145_a_at) / RFU FIZ1 (11724087_x_at) / Fold change /veh FIZ1 (11724087_x_at) / RFU OASL (11726364_x_at) / Fold change /veh OASL (11726364_x_at) / RFU SOX15 (11748057_x_at) / Fold change /veh SOX15 (11748057_x_at) / RFU CD79A (11719716_a_at) / Fold change /veh CD79A (11719716_a_at) / RFU HIST1H1D (11736915_at) / Fold change /veh HIST1H1D (11736915_at) / RFU CASKIN2 (11723855_a_at) / Fold change /veh CASKIN2 (11723855_a_at) / RFU LOC730098 (11760151_x_at) / Fold change /veh LOC730098 (11760151_x_at) / RFU OR4N2 (11742367_at) / Fold change /veh OR4N2 (11742367_at) / RFU PRRT2 (11749266_a_at) / Fold change /veh PRRT2 (11749266_a_at) / RFU SNX32 (11753110_a_at) / Fold change /veh SNX32 (11753110_a_at) / RFU CDHR5 (11726645_a_at) / Fold change /veh CDHR5 (11726645_a_at) / RFU RCAN1 (11760418_a_at) / Fold change /veh RCAN1 (11760418_a_at) / RFU FAM167A (11723789_a_at) / Fold change /veh FAM167A (11723789_a_at) / RFU FAM26E (11764081_at) / Fold change /veh FAM26E (11764081_at) / RFU ISYNA1 (11749810_s_at) / Fold change /veh ISYNA1 (11749810_s_at) / RFU ACY1 (11761880_at) / Fold change /veh ACY1 (11761880_at) / RFU 11764098_at / Fold change /veh 11764098_at / RFU SAMD14 (11745864_x_at) / Fold change /veh SAMD14 (11745864_x_at) / RFU NPB (11741838_a_at) / Fold change /veh NPB (11741838_a_at) / RFU TMPRSS6 (11731388_a_at) / Fold change /veh TMPRSS6 (11731388_a_at) / RFU KRTAP10-2 (11738614_at) / Fold change /veh KRTAP10-2 (11738614_at) / RFU ARHGAP8 /// PRR5-ARHGAP8 (11727945_x_at) / Fold change /veh ARHGAP8 /// PRR5-ARHGAP8 (11727945_x_at) / RFU KRTAP5-7 /// NADSYN1 (11734609_at) / Fold change /veh KRTAP5-7 /// NADSYN1 (11734609_at) / RFU RASL12 (11751679_a_at) / Fold change /veh RASL12 (11751679_a_at) / RFU CDKN2B (11736163_a_at) / Fold change /veh CDKN2B (11736163_a_at) / RFU PRF1 (11729649_at) / Fold change /veh PRF1 (11729649_at) / RFU, ZNF638 /// ZNF638-IT1 / Fold change vs veh, ZNF638 /// ZNF638-IT1 / RFU, PANK3 / Fold change vs veh, PANK3 / RFU, SH3YL1 / Fold change vs veh, SH3YL1 / RFU, ZEB2 / Fold change vs veh, ZEB2 / RFU, NRIP1 / Fold change vs veh, NRIP1 / RFU, PTTG1IP / Fold change vs veh, PTTG1IP / RFU, CAPN2 / Fold change vs veh, CAPN2 / RFU, MED14 / Fold change vs veh, MED14 / RFU, SNORA58 / Fold change vs veh, SNORA58 / RFU, C1orf63 / Fold change vs veh, C1orf63 / RFU, LRRFIP1 / Fold change vs veh, LRRFIP1 / RFU, NDUFAF7 / Fold change vs veh, NDUFAF7 / RFU, SLC12A2 / Fold change vs veh, SLC12A2 / RFU, IBTK / Fold change vs veh, IBTK / RFU, ESF1 / Fold change vs veh, ESF1 / Fold change vs veh, TMEM50B / RFU, TAOK1 / Fold change vs veh, TAOK1 / RFU, ACBD3 / Fold change vs veh, ACBD3 / RFU, TMA16 / Fold change vs veh, TMA16 / RFU, RWDD3 / Fold change vs veh, RWDD3 / RFU, BCAT1 / Fold change vs veh, BCAT1 / RFU, EDEM3 / Fold change vs veh, EDEM3 / RFU, TMEM33 / Fold change vs veh, TMEM33 / RFU, WDR75 / Fold change vs veh, WDR75 / RFU, AHCTF1 / Fold change vs veh, AHCTF1 / RFU, TFRC / Fold change vs veh, TFRC / RFU, ZDHHC17 / Fold change vs veh, ZDHHC17 / RFU, NOM1 / Fold change vs veh, NOM1 / RFU, ARL8B / Fold change vs veh, ARL8B / RFU, ZBTB11 / Fold change vs veh, ZBTB11 / RFU, TAMM41 / Fold change vs veh, TAMM41 / RFU, KIAA1704 /// LOC100996395 / Fold change vs veh, KIAA1704 /// LOC100996395 / RFU, ING1 / Fold change vs veh, ING1 / RFU, TRMT61B / Fold change vs veh, TRMT61B / RFU, FUBP3 / Fold change vs veh, FUBP3 / RFU, TP53 / Fold change vs veh, TP53 / RFU, TNKS2 / Fold change vs veh, TNKS2 / RFU, ZFP14 / Fold change vs veh, ZFP14 / RFU, ACTR2 / Fold change vs veh, ACTR2 / RFU, PPP3R1 / Fold change vs veh, PPP3R1 / RFU, PIK3R1 / Fold change vs veh, PIK3R1 / RFU, HNRNPA1 / Fold change vs veh, HNRNPA1 / RFU, RNF170 / Fold change vs veh, RNF170 / RFU, ZNF28 / Fold change vs veh, ZNF28 / RFU, RNGTT / Fold change vs veh, RNGTT / RFU, OGT / Fold change vs veh, OGT / RFU, BRD1 / Fold change vs veh, BRD1 / RFU, MARS / Fold change vs veh, MARS / RFU, ZNF655 / Fold change vs veh, ZNF655 / RFU, FAHD1 / Fold change vs veh, FAHD1 / RFU, BDP1 / Fold change vs veh, BDP1 / RFU, LRRCC1 / Fold change vs veh, LRRCC1 / RFU, ARID1A / Fold change vs veh, ARID1A / RFU, ZNF146 / Fold change vs veh, ZNF146 / RFU, ZNF330 / Fold change vs veh, ZNF330 / RFU, GPN3 / Fold change vs veh, GPN3 / RFU, C9orf123 / Fold change vs veh, C9orf123 / RFU, N4BP2L2 / Fold change vs veh, N4BP2L2 / RFU, ARFIP1 / Fold change vs veh, ARFIP1 / RFU, FAM179B / Fold change vs veh, FAM179B / RFU, BCL10 / Fold change vs veh, BCL10 / RFU, UHRF1BP1L / Fold change vs veh, UHRF1BP1L / RFU, BET1 / Fold change vs veh, BET1 / RFU, CNOT2 / Fold change vs veh, CNOT2 / RFU, ZNF268 / Fold change vs veh, ZNF268 / Fold change vs veh, ZNF507 / RFU, DGCR2 / Fold change vs veh, DGCR2 / RFU, WDSUB1 / Fold change vs veh, WDSUB1 / Fold change vs veh, HSP90B1 /// MIR3652 / RFU, ADSS / Fold change vs veh, ADSS / RFU, GK / Fold change vs veh, GK / RFU, ZNF148 / Fold change vs veh, ZNF148 / RFU, TAF9 / Fold change vs veh, TAF9 / RFU, SLC1A5 / Fold change vs veh, SLC1A5 / RFU, SLMO2 / Fold change vs veh, SLMO2 / RFU, ABCC4 / Fold change vs veh, ABCC4 / RFU, LOC101060439 /// RAP1B / Fold change vs veh, LOC101060439 /// RAP1B / RFU, RFX7 / Fold change vs veh, RFX7 / RFU, GTPBP10 / Fold change vs veh, GTPBP10 / RFU, CNEP1R1 / Fold change vs veh, CNEP1R1 / RFU, BIVM-ERCC5 /// ERCC5 / Fold change vs veh, BIVM-ERCC5 /// ERCC5 / RFU, ILF3 / Fold change vs veh, ILF3 / RFU 11762660_at / Fold change /veh 11762660_at / RFU VCAN (11757783_s_at) / Fold change /veh VCAN (11757783_s_at) / RFU DDX43 (11728927_at) / Fold change /veh DDX43 (11728927_at) / RFU KRT8 (11758188_x_at) / Fold change /veh KRT8 (11758188_x_at) / RFU NKD1 (11759106_at) / Fold change /veh NKD1 (11759106_at) / RFU SRD5A1 (11742802_a_at) / Fold change /veh SRD5A1 (11742802_a_at) / RFU TPSAB1 /// TPSB2 (11721975_s_at) / Fold change /veh TPSAB1 /// TPSB2 (11721975_s_at) / RFU GSTM3 (11746129_a_at) / Fold change /veh GSTM3 (11746129_a_at) / RFU IL23R (11737362_x_at) / Fold change /veh IL23R (11737362_x_at) / RFU TMEM51 (11727254_a_at) / Fold change /veh TMEM51 (11727254_a_at) / RFU PIWIL2 (11732686_x_at) / Fold change /veh PIWIL2 (11732686_x_at) / RFU ORM1 (11744905_x_at) / Fold change /veh ORM1 (11744905_x_at) / RFU CCDC152 (11743942_at) / Fold change /veh CCDC152 (11743942_at) / RFU ECM1 (11717891_a_at) / Fold change /veh ECM1 (11717891_a_at) / RFU IL23R (11748794_a_at) / Fold change /veh IL23R (11748794_a_at) / RFU TNFAIP8L3 (11732012_x_at) / Fold change /veh TNFAIP8L3 (11732012_x_at) / RFU MBOAT4 (11741988_at) / Fold change /veh MBOAT4 (11741988_at) / RFU 11764193_at / Fold change /veh 11764193_at / RFU TMEM53 (11763286_at) / Fold change /veh TMEM53 (11763286_at) / RFU MAGEB2 (11727129_at) / Fold change /veh MAGEB2 (11727129_at) / RFU TMEM200A (11744735_a_at) / Fold change /veh TMEM200A (11744735_a_at) / RFU CCDC152 (11751479_a_at) / Fold change /veh CCDC152 (11751479_a_at) / RFU FAM211A (11726209_a_at) / Fold change /veh FAM211A (11726209_a_at) / RFU RGS16 (11746705_a_at) / Fold change /veh RGS16 (11746705_a_at) / RFU VCAN (11755009_s_at) / Fold change /veh VCAN (11755009_s_at) / RFU RHOB (11743442_s_at) / Fold change /veh RHOB (11743442_s_at) / RFU RGS16 (11720943_a_at) / Fold change /veh RGS16 (11720943_a_at) / RFU RGS16 (11720944_at) / Fold change /veh RGS16 (11720944_at) / RFU, VPS4B / Fold change vs veh, VPS4B / RFU, CREB1 / Fold change vs veh, CREB1 / RFU, DNAJC13 / Fold change vs veh, DNAJC13 / RFU, GNAQ / Fold change vs veh, GNAQ / RFU, CDK5R1 / Fold change vs veh, CDK5R1 / RFU, ZRANB3 / Fold change vs veh, ZRANB3 / RFU, CUL4A / Fold change vs veh, CUL4A / RFU, CCNY / Fold change vs veh, CCNY / RFU, UFL1 / Fold change vs veh, UFL1 / RFU, COG3 / Fold change vs veh, COG3 / RFU, DIAPH2 / Fold change vs veh, DIAPH2 / RFU, SKA2 / Fold change vs veh, SKA2 / RFU, AFF3 / Fold change vs veh, AFF3 / RFU, LMF1 / Fold change vs veh, LMF1 / RFU, IPO11 / Fold change vs veh, IPO11 / RFU, DFFB / Fold change vs veh, DFFB / RFU, FOXP1 / Fold change vs veh, FOXP1 / RFU, CARD8 / Fold change vs veh, CARD8 / RFU, STRN3 / Fold change vs veh, STRN3 / RFU, ADK / Fold change vs veh, ADK / RFU, RASSF2 / Fold change vs veh, RASSF2 / RFU, WIPF1 / Fold change vs veh, WIPF1 / RFU, LARP1B / Fold change vs veh, LARP1B / RFU, RASA1 / Fold change vs veh, RASA1 / RFU, RB1 / Fold change vs veh, RB1 / RFU, PPFIA1 / Fold change vs veh, PPFIA1 / RFU, MAT2A / Fold change vs veh, MAT2A / RFU, CCT5 / Fold change vs veh, CCT5 / RFU, WDR92 / Fold change vs veh, WDR92 / RFU, CUX1 / Fold change vs veh, CUX1 / RFU, TTC7A / Fold change vs veh, TTC7A / RFU, TMEM135 / Fold change vs veh, TMEM135 / RFU, DEPTOR / Fold change vs veh, DEPTOR / RFU, CPM / Fold change vs veh, CPM / RFU, DNAJB6 / Fold change vs veh, DNAJB6 / RFU, CACNA2D3 / Fold change vs veh, CACNA2D3 / RFU, DTX4 / Fold change vs veh, DTX4 / RFU, TFCP2 / Fold change vs veh, TFCP2 / RFU, GMCL1 /// GMCL1P1 / Fold change vs veh, GMCL1 /// GMCL1P1 / RFU, AEBP2 / Fold change vs veh, AEBP2 / RFU, SNHG1 /// SNORD22 /// SNORD25 /// SNORD26 /// SNORD27 /// SNORD28 /// SNORD29 /// SNORD31 / Fold change vs veh, SNHG1 /// SNORD22 /// SNORD25 /// SNORD26 /// SNORD27 /// SNORD28 /// SNORD29 /// SNORD31 / Fold change (Aza/veh), C12orf56 (ProbeSet 11735607_a_at) / Fold change (ACY-1035/veh), C12orf56 (ProbeSet 11735607_a_at) / Fold change (Aza/veh), FGFR1OP (ProbeSet 11751329_s_at) / Fold change (ACY-1035/veh), FGFR1OP (ProbeSet 11751329_s_at) / Fold change (Aza/veh), VPS36 (ProbeSet 11739960_a_at) / Fold change (ACY-1035/veh), VPS36 (ProbeSet 11739960_a_at) / RFU SYPL1 (11715823_x_at) / Fold change /veh SYPL1 (11715823_x_at) / RFU IGFBP7 (11715501_s_at) / Fold change /veh IGFBP7 (11715501_s_at) / RFU REEP3 (11722064_at) / Fold change /veh REEP3 (11722064_at) / RFU IGLL1 (11728026_x_at) / Fold change /veh IGLL1 (11728026_x_at): dose or concentration left out as unconfirmed
Conditions: ProbeSet 11722302_a_at; LIST B

Nc1ncn([C@@H]2O[C@H](CO)[C@@H](O)[C@H]2O)c(=O)n1 [azacitidine]
Fold change vs veh, LRRFIP1: 0.89
